Reference: paper PMC7290441 (Viruses, 2020)
Counter-ions that a name gives are not always drawn. Like-named read-outs stand apart in the source and are kept apart here.

How the values were obtained:
[1] = tested on: A/Brisbane/59/2007 (H1N1)
[2] = tested on: A/California/7/2009 (H1N1); assay: microbe, parasite or virus in culture; conditions: Influenza A virus, H1N1, MDCK, 72 h, read-out: EC50 against A/California/7/2009 (H1N1)
[3] = tested on: A/Perth/16/2009 (H3N2); assay: microbe, parasite or virus in culture; conditions: Influenza A virus, H3N2, MDCK, 72 h, read-out: EC50 against A/Perth/16/2009 (H3N2)
[4] = tested on: A/Brisbane/59/2007 (H1N1); assay: microbe, parasite or virus in culture; conditions: Influenza A virus, H1N1, MDCK, 72 h, read-out: EC50 against A/Brisbane/59/2007 (H1N1)
[5] = tested on: A/Seoul/11/1988 (H3N2); assay: microbe, parasite or virus in culture; conditions: Influenza A virus, H3N2, MDCK, 72 h, read-out: EC50 against A/Seoul/11/1988 (H3N2)
[6] = tested on: A/Hong Kong/8/1968 (H3N2); assay: microbe, parasite or virus in culture; conditions: Influenza A virus, H3N2, MDCK, 72 h, read-out: EC50 against A/Hong Kong/8/1968 (H3N2)
[7] = tested on: B/Brisbane/60/2008; assay: microbe, parasite or virus in culture; conditions: Influenza B virus, MDCK, 72 h, read-out: EC50 against B/Brisbane/60/2008
[8] = tested on: A/Hong Kong/8/1968 (H3N2)
[9] = tested on: A/Puerto Rico/8/1934 (H1N1)
[10] = tested on: A/Victoria/361/2011-like (H3N2); assay: microbe, parasite or virus in culture; conditions: Influenza A virus, H3N2, MDCK, 72 h, read-out: EC50 against A/Victoria/361/2011-like (H3N2)
[11] = tested on: B/Lee/40; assay: microbe, parasite or virus in culture; conditions: Influenza B virus, MDCK, 72 h, read-out: EC50 against B/Lee/40
[12] = tested on: A/Puerto Rico/8/1934 (H1N1); assay: microbe, parasite or virus in culture; conditions: Influenza A virus, H1N1, MDCK, 72 h, read-out: EC50 against A/Puerto Rico/8/1934 (H1N1)
[13] = tested on: A/California/7/2009 (H1N1)
[14] = tested on: A/Brisbane/10/2007 (H3N2); assay: microbe, parasite or virus in culture; conditions: Influenza A virus, H3N2, MDCK, 72 h, read-out: EC50 against A/Brisbane/10/2007 (H3N2)
[15] = Cytotoxicity to mock-infected MDCK cells (MTT); conditions: dog
[16] = tested on: B/Brisbane/60/2008
[17] = tested on: A/Perth/16/2009 (H3N2)
[18] = tested on: A/Seoul/11/1988 (H3N2)
[19] = tested on: PR8 virus (viral proteins NP, HA, M1); type: cell-based, influenza A virus
[20] = in vitro; conditions: dog
[21] = tested on: A/Brisbane/10/2007 (H3N2)
[22] = tested on: A/Victoria/361/2011-like (H3N2)
[23] = tested on: B/Lee/40
[24] = tested on: influenza B strain (Lee); assay: Chemical library screen, CPE reduction assay, influenza B; type: cell-based, influenza B virus; conditions: 20 µM
[25] = tested on: influenza A viruses (PR8 and HK); assay: microbe, parasite or virus in culture; conditions: PR8, MDCK, read-out: viability of infected MDCK cells
[26] = […], nylidrin 100 μM, OSV-C 10 μM, RBV 100 μM

Row | SMILES | S.I. (CC50/EC50), A/Brisbane/59/2007 (H1N1) ([1]; MDCK cells) | EC50 [2] [µM] | EC50 [3] [µM] | EC50 [4] [µM] | EC50 [5] [µM] | EC50 [6] [µM] | EC50 [7] [µM] | S.I. (CC50/EC50), A/Hong Kong/8/1968 (H3N2) [8] | S.I. (CC50/EC50), A/Puerto Rico/8/1934 (H1N1) ([9]; MDCK cells) | EC50 [10] [µM] | EC50 [11] [µM] | EC50 [12] [µM] | S.I. (CC50/EC50), A/California/7/2009 (H1N1) ([13]; MDCK cells) | EC50 [14] [µM] | CC50 at 3 days [15] [µM] | also measured
1 | CC(C(O)c1ccc(O)cc1)N1CCC(Cc2ccccc2)CC1 (centres unmarked) [Ifenprodil, ifenprodil] | (96.7) | 1.1 ± 0.1 | > 100 | 5.1 ± 0.3 | 37.9 ± 7.7 | 16.9 ± 3 | > 100 | (29.0) | (74.0) | > 100 | > 100 | 6.6 ± 0.4 | (465.0) | > 100 | 488.2 ± 0.5 | 
2 | CC(CCc1ccccc1)NCC(O)c1ccc(O)c(C(N)=O)c1 (centres unmarked) [Labetalol, labetalol] |  | > 100 | > 100 | > 100 | > 100 | 44 ± 9.7 | > 100 | (>11.3) |  | > 100 | > 100 | > 100 |  | > 100 | 498.1 ± 0.5 | 
3 | CCC(CC)O[C@@H]1C=C(C(=O)O)C[C@H](N)[C@H]1NC(C)=O [OSV-C, oseltamivir carboxylate] | (>58,065) | 0.02 | 0.03 ± 0.02 | 0.02 | < 0.005 | < 0.005 | 53.1 ± 25.2 | (>180,000) | (>25,714) | < 0.005 | 0.8 ± 0.03 | 0.04 ± 0.01 | (>58,065) | 0.53 ± 0.16 |  | S.I. (CC50/EC50), B/Brisbane/60/2008 ([16]; MDCK cells): (>17.0); S.I. (CC50/EC50), A/Perth/16/2009 (H3N2) ([17]; MDCK cells): (>30,000); S.I. (CC50/EC50), A/Seoul/11/1988 (H3N2) ([18]; MDCK cells): (>180,000); viral proteins NP, HA and M1 (western blot) [19, 26]: not detected; CC50 at 3 days [20]: > 900 µM; S.I. (CC50/EC50), A/Brisbane/10/2007 (H3N2) [21]: (>1714); S.I. (CC50/EC50), A/Victoria/361/2011-like (H3N2) ([22]; MDCK cells): (>180,000); S.I. (CC50/EC50), B/Lee/40 [23]: (>1125)
4 | CC(CCc1ccccc1)NC(C)C(O)c1ccc(O)cc1 (centres unmarked) [Nylidrin, nylidrin] | (156.9) | 1.7 ± 0.5 | > 100 | 3.5 ± 1.6 | 38.8 ± 19.4 | 12.1 ± 1.6 | > 100 |  | (76.3) | > 100 | > 100 | 7.2 ± 0.2 | (332.8) | > 100 | 549.2 ± 0.5 | S.I. (CC50/EC50), A/Seoul/11/1988 (H3N2) ([18]; MDCK cells): (14.3); S.I. (CC50/EC50), A/Puerto Rico/8/1934 (H1N1) ([9]; MDCK cells, listed as nylidrin): 76.3; viral proteins NP, HA and M1 (western blot) [19, 26]: not detected; CPE-reduction [24]: no benefit; viability at 20 µM [25]: 80%
5 | CC(Cc1ccc(O)cc1)NCC(O)c1cc(O)cc(O)c1 (centres unmarked) [Fenoterol, fenoterol] |  |  |  |  |  | > 100 |  |  |  |  | > 100 | > 100 |  |  |  | CC50 [20]: > 900 µM
6 | CC(C)(C)NCC(O)c1cc(Cl)c(N)c(Cl)c1 (centres unmarked) [Clenbuterol, clenbuterol] | (>69.8) | 13.7 ± 3.6 | > 100 | 12.9 ± 0.3 | > 100 | > 100 | > 100 |  | (>96.3) | > 100 | > 100 | 9.4 ± 4.6 | (>65.9) | > 100 |  | CC50 [20]: > 900 µM
7 | CC(NCCc1ccc(O)cc1)C(O)c1ccc(O)cc1 (centres unmarked) [Ritodrine, ritodrine] |  |  |  |  |  | > 100 |  |  |  |  | > 100 | > 100 |  |  | > 900 | 
8 | OC(CN1CCC(Cc2ccc(F)cc2)CC1)c1ccc(Cl)cc1 (centres unmarked) [Eliprodil, eliprodil] | (>16.9) | > 100 | > 100 | 53.1 ± 0.3 | > 100 | > 44 | > 100 | (>15.5) |  | > 100 | > 100 | > 100 |  | > 100 | > 900 | EC50 ([8]; read-out: EC50 against A/Hong Kong/8/1968 (H3N2)): 58.1 ± 6.4 µM
9 | NC(=O)c1ncn([C@@H]2O[C@H](CO)[C@@H](O)[C@H]2O)n1 [RBV, ribavirin] |  | 52.5 ± 1.5 | 33.8 ± 11.6 | 24.1 ± 0.5 | 10.5 ± 4.2 | 15.7 ± 2.7 | 25.6 ± 0.3 | (>57.5) |  | 33.4 ± 8.8 | 13.8 ± 0.2 | 18.4 ± 3.4 |  | 12.6 ± 6.4 | > 900 | S.I. (CC50/EC50), A/Brisbane/59/2007 (H1N1) [1]: (>37.3); S.I. (CC50/EC50), B/Brisbane/60/2008 [16]: (>35.2); S.I. (CC50/EC50), A/Perth/16/2009 (H3N2) [17]: (>26.6); S.I. (CC50/EC50), A/Seoul/11/1988 (H3N2) [18]: (>52.3); S.I. (CC50/EC50), A/Puerto Rico/8/1934 (H1N1) [9]: (>48.9); viral proteins NP, HA and M1 (western blot) [19]: not detected; S.I. (CC50/EC50), A/California/7/2009 (H1N1) [13]: (>17.2); S.I. (CC50/EC50), A/Brisbane/10/2007 (H3N2) [21]: (>71.4); S.I. (CC50/EC50), A/Victoria/361/2011-like (H3N2) [22]: (>16.4); S.I. (CC50/EC50), B/Lee/40 [23]: (>65.5)
10 | CN(C)C(=O)Oc1cc(OC(=O)N(C)C)cc(C(O)CNC(C)(C)C)c1 (centres unmarked) [Bambuterol, bambuterol] |  |  |  |  |  | > 100 |  |  |  |  | > 100 | > 100 |  |  | > 900 | 
11 | NC12CC3CC(CC(C3)C1)C2 [AMT, amantadine hydrochloride] | (>750) | > 100 | > 100 | 1.2 ± 0.4 | 0.3 ± 0.1 | 0.8 ± 0.1 | > 100 | (>1200) |  | > 100 | > 100 | > 100 |  | > 100 | > 900 | 
